Data: patent US20060282906A1, “Non-transgenic rodent model of Alzheimer's disease” (priority 2005, published 2006)
Marks after values point to notes of the source that are not given here.

Columns and labels:
[1] = system: Male Wistar rats; assay: Immunohistochemistry of rat brain sections, grading scale of staining size and intensity; format: in vivo; design: key to Effect of Triflusal on NKκB(p65) immunostaining / Effect of Triflusal on COX-2 immunostaining / Effect of Triflusal on GFAP immunostaining / Effect of Triflusal on OX-6 immunostaining / Effect of Triflusal on APP immunostaining / Effect of Triflusal on Tau-2 immunostaining / Effect of Triflusal on TNFα immunostaining / Effect of Triflusal on Cas-3 immunostaining: −: no effect; ↓: moderate reduction; ↓↓: strong reduction
Experimental: (§1) Male Wistar rats (250 to 300 grams; Charles River, Montreal, Quebec) were divided into 4 groups: intracerebroventricular injections of Aβ(25-35) (BACHEM, Torrance, Calif.); endothelin injections into the right striatum; both Aβ(25-35) and striatal endothelin injections; and sham procedures. The Aβ(25-35) fragment was used to reduce the possibility of rapid coagulation and to allow diffusion of the peptide into the brain.
(§2) All rats were anesthetized using 40 mg/kg of pentobarbital (Somnotol; MTC Pharmaceuticals, Cambridge, Ontario) intraperitoneally. Body temperature was maintained at 37° C. Aβ(25-35) (50 nmol in 10 μL of saline) was injected bilaterally into the lateral ventricles. Aβ(25-35) was prepared according to established methods (Sigurdsson, et al. (1997) supra). Aβ(25-35) (50 nmol in 10 μL of saline at a rate of 1 μL/minute) was injected bilaterally into the lateral ventricles via a stainless-steel cannula (23-gauge; anterior/posterior −0.8, medial/lateral ±1.4, and dorsal/ventral −4.0 below dura). Two endothelin injections (6 pmol in 3 μL of saline), 1 mm apart, were made into the right striatum (Sigurdsson, et al. (1997) supra). Sham procedures involved all the surgical steps without injections of Aβ(25-35) or endothelin. After wound suture, all rats received 40 mg/kg of buprenorphine intramuscularly and were allowed to recover from surgery for 7 days.
(§3) Twenty-one days after surgery, all animals were euthanized via pentobarbital overdose and perfused transaortically first with saline followed by 4% formaldehyde (pH 7.4). The brains were removed and cryoprotected in 30% sucrose for 36 hours at 4° C. Coronal sections (30 pm) were cut using a cryostat.
(§4) Free-floating sections from rat brains (n=5 for each group) were treated with 0.03% hydrogen peroxide and blocked with 3 mL of horse or rabbit serum (VECTASTAIN® Elite, Vector Laboratories, Burlingame, Calif.). The following primary antibodies were diluted in filtered phosphate-buffered saline: APPa4 mouse monoclonal (Chemicon International Inc, Temecula, Calif.; 1:1000), GFAP mouse monoclonal (Sigma-Aldrich, St Louis, Mo.; 1:1000), OX-6 mouse monoclonal (Serotec, Inc., Raleigh, N.C.; 1:1000), Tau-2 mouse monoclonal (Sigma-Aldrich, St Louis, Mo.; 1:10000), NFκB(p65) goat polyclonal (Santa Cruz Biotechnologies, Santa Cruz, Calif.; 1:1000), IL-1β goat polyclonal (Santa Cruz Biotechnologies, Santa Cruz, Calif.; 1:1000), and TNF-α-M18 goat polyclonal (Santa Cruz Biotechnologies, Santa Cruz, Calif.; 1:1000). APP-, Tau-2-, GFAP-, and OX-6-stained sections were incubated with 3 mL of horse biotinylated anti-mouse secondary antibody and horse serum. NFκB(p65), IL-1β, and TNF-α-stained sections were incubated with 3 mL of biotinylated rabbit anti-goat secondary antibody and rabbit serum. Sections were then incubated in 3 mL of avidin-biotin complex followed by 0.05% diaminobenzidine. Sections were washed, air-dried, cleared in xylene, and cover-slipped. Brains to be compared were processed at the same time using the same solutions to reduce variability in immunostaining caused by separate processing.
(§5) Digital photographs were taken using a light microscope (Leitz Diaplan). An investigator was blinded to the identification of the rat sections while analysis was being performed. All immunohistochemical data that were compared was processed at the same time to reduce any variation caused by differences of intensity. A grading scale was based on both observable size and intensity of staining (n=5 for each group). Also, relative optical density measurements and numbers of stained cells or accumulations were measured in entire brain areas for quantitative analysis and statistically analyzed with ANOVA and Tukey post hoc test with a significance level of P<0.05.

[2] = system: Male Wistar rats; assay: Quantitative immunohistochemistry: relative optical density and numbers of stained cells or accumulations; format: in vivo, rat; conditions: Trifusal treatment (brackets)
Experimental: as §1, §2, §3, §4, §5

[3] = Corpus Callosum, Aβ-Endothelin rats
[4] = Hippocampus, Aβ-Endothelin rats
[5] = Hypothalamus, Aβ-Endothelin rats
[6] = Striatum (right), Aβ-Endothelin rats
[7] = Striatum (right), Endothelin rats
[8] = Thalamus (right), Aβ-Endothelin rats
[9] = Thalamus (right), Endothelin rats
[10] = Left Hippocampus, Endothelin rats
[11] = Right Hippocampus, Aβ/Endo rats
[12] = Right Hippocampus, Endothelin rats

SMILES: CC(=O)Oc1cc(C(F)(F)F)ccc1C(=O)O [Triflusal]
- Effect of Triflusal on APP immunostaining ([1]; Corpus Callosum, Aβ rats): ↓↓
- Effect of Triflusal on COX-2 immunostaining ([1]; Corpus Callosum, Aβ rats): ↓↓
- Effect of Triflusal on GFAP immunostaining ([1]; Corpus Callosum, Aβ rats): ↓↓
- Effect of Triflusal on NKκB(p65) immunostaining ([1]; Corpus Callosum, Aβ rats): ↓↓
- Effect of Triflusal on OX-6 immunostaining ([1]; Corpus Callosum, Aβ rats): ↓↓
- Effect of Triflusal on TNFα immunostaining ([1]; Corpus Callosum, Aβ rats): ↓↓
- Effect of Triflusal on Tau-2 immunostaining ([1]; Corpus Callosum, Aβ rats): ↓↓
- Effect of Triflusal on APP immunostaining [1, 3]: −
- Effect of Triflusal on COX-2 immunostaining [1, 3]: ↓
- Effect of Triflusal on GFAP immunostaining [1, 3]: −
- Effect of Triflusal on NKκB(p65) immunostaining [1, 3]: ↓
- Effect of Triflusal on OX-6 immunostaining [1, 3]: ↓
- Effect of Triflusal on TNFα immunostaining [1, 3]: −
- Effect of Triflusal on Tau-2 immunostaining [1, 3]: −
- Effect of Triflusal on GFAP immunostaining ([1]; Corpus Callosum, Endothelin rats): −
- Effect of Triflusal on APP immunostaining ([1]; Cortex, Aβ rats): ↓↓
- Effect of Triflusal on COX-2 immunostaining ([1]; Cortex, Aβ rats): ↓↓
- Effect of Triflusal on GFAP immunostaining ([1]; Cortex, Aβ rats): −
- Effect of Triflusal on NKκB(p65) immunostaining ([1]; Cortex, Aβ rats): ↓
- Effect of Triflusal on OX-6 immunostaining ([1]; Cortex, Aβ rats): ↓
- Effect of Triflusal on TNFα immunostaining ([1]; Cortex, Aβ rats): ↓
- Effect of Triflusal on Tau-2 immunostaining ([1]; Cortex, Aβ rats): ↓↓
- Effect of Triflusal on APP immunostaining ([1]; Cortex, Aβ-Endothelin rats): −
- Effect of Triflusal on COX-2 immunostaining ([1]; Cortex, Aβ-Endothelin rats): ↓
- Effect of Triflusal on GFAP immunostaining ([1]; Cortex, Aβ-Endothelin rats): −
- Effect of Triflusal on NKκB(p65) immunostaining ([1]; Cortex, Aβ-Endothelin rats): −
- Effect of Triflusal on OX-6 immunostaining ([1]; Cortex, Aβ-Endothelin rats): −
- Effect of Triflusal on TNFα immunostaining ([1]; Cortex, Aβ-Endothelin rats): ↓
- Effect of Triflusal on Tau-2 immunostaining ([1]; Cortex, Aβ-Endothelin rats): −
- Effect of Triflusal on GFAP immunostaining ([1]; Cortex, Endothelin rats): −
- Effect of Triflusal on APP immunostaining ([1]; Hippocampus, Aβ rats): ↓
- Effect of Triflusal on COX-2 immunostaining ([1]; Hippocampus, Aβ rats): ↓
- Effect of Triflusal on GFAP immunostaining ([1]; Hippocampus, Aβ rats): −
- Effect of Triflusal on NKκB(p65) immunostaining ([1]; Hippocampus, Aβ rats): ↓
- Effect of Triflusal on OX-6 immunostaining ([1]; Hippocampus, Aβ rats): ↓
- Effect of Triflusal on Tau-2 immunostaining ([1]; Hippocampus, Aβ rats): ↓
- Effect of Triflusal on APP immunostaining [1, 4]: −
- Effect of Triflusal on COX-2 immunostaining [1, 4]: −
- Effect of Triflusal on GFAP immunostaining [1, 4]: −
- Effect of Triflusal on NKκB(p65) immunostaining [1, 4]: −
- Effect of Triflusal on OX-6 immunostaining [1, 4]: −
- Effect of Triflusal on Tau-2 immunostaining [1, 4]: −
- Effect of Triflusal on GFAP immunostaining ([1]; Hippocampus, Endothelin rats): −
- Effect of Triflusal on APP immunostaining ([1]; Hypothalamus, Aβ rats): ↓
- Effect of Triflusal on NKκB(p65) immunostaining ([1]; Hypothalamus, Aβ rats): ↓↓
- Effect of Triflusal on TNFα immunostaining ([1]; Hypothalamus, Aβ rats): ↓↓
- Effect of Triflusal on APP immunostaining [1, 5]: −
- Effect of Triflusal on NKκB(p65) immunostaining [1, 5]: ↓
- Effect of Triflusal on TNFα immunostaining [1, 5]: ↓
- Effect of Triflusal on GFAP immunostaining ([1]; Striatum (right), Aβ rats): −
- Effect of Triflusal on APP immunostaining [1, 6]: ↓
- Effect of Triflusal on COX-2 immunostaining [1, 6]: ↓
- Effect of Triflusal on GFAP immunostaining [1, 6]: −
- Effect of Triflusal on NKκB(p65) immunostaining [1, 6]: ↓
- Effect of Triflusal on OX-6 immunostaining [1, 6]: ↓
- Effect of Triflusal on TNFα immunostaining [1, 6]: ↓
- Effect of Triflusal on APP immunostaining [1, 7]: ↓↓
- Effect of Triflusal on COX-2 immunostaining [1, 7]: ↓↓
- Effect of Triflusal on Cas-3 immunostaining [1, 7]: ↓
- Effect of Triflusal on GFAP immunostaining [1, 7]: −
- Effect of Triflusal on NKκB(p65) immunostaining [1, 7]: ↓
- Effect of Triflusal on OX-6 immunostaining [1, 7]: ↓↓
- Effect of Triflusal on TNFα immunostaining [1, 7]: ↓
- Effect of Triflusal on OX-6 immunostaining ([1]; Thalamus (right), Aβ rats): −
- Effect of Triflusal on TNFα immunostaining ([1]; Thalamus (right), Aβ rats): −
- Effect of Triflusal on OX-6 immunostaining [1, 8]: −
- Effect of Triflusal on TNFα immunostaining [1, 8]: −
- Effect of Triflusal on OX-6 immunostaining [1, 9]: −
- Effect of Triflusal on TNFα immunostaining [1, 9]: −
- APP Accumulation ([2]; Left Cortex, Aβ rats): (12.5 ± 2.6)^x
- APP Accumulation ([2]; Left Cortex, Aβ/Endo rats): 64.5 ± 10.2)
- APP Accumulation ([2]; Left Cortex, Endothelin rats): (7.3 ± 1.3)
- APP Accumulation ([2]; Left Cortex, Sham rats): (7.3 ± 2.3)
- GFAP Intensity ([2]; Left Hippocampus, Aβ rats): (166.8 ± 9.1)
- OX6 Intensity ([2]; Left Hippocampus, Aβ rats): (109.8 ± 6.8)^a
- GFAP Intensity ([2]; Left Hippocampus, Aβ/Endo rats): (188.9 ± 4.4)
- OX6 Intensity ([2]; Left Hippocampus, Aβ/Endo rats): (149.0 ± 7.1)
- GFAP Intensity [2, 10]: (148.8 ± 4.5)
- OX6 Intensity [2, 10]: (106.8 ± 6.4)
- GFAP Intensity ([2]; Left Hippocampus, Sham rats): (150.8 ± 5.5)
- OX6 Intensity ([2]; Left Hippocampus, Sham rats): (97.9 ± 2.0)
- APP Accumulation ([2]; Right Cortex, Aβ rats): (11.0 ± 2.1)^x
- APP Accumulation ([2]; Right Cortex, Aβ/Endo rats): (85.8 ± 16.1)
- APP Accumulation ([2]; Right Cortex, Endothelin rats): (13.3 ± 2.1)
- APP Accumulation ([2]; Right Cortex, Sham rats): (5.0 ± 2.7)
- GFAP Intensity ([2]; Right Hippocampus, Aβ rats): (164.2 ± 10.1)
- OX6 Intensity ([2]; Right Hippocampus, Aβ rats): (110.8 ± 4.6)^x
- GFAP Intensity [2, 11]: (188.3 ± 8.2)
- OX6 Intensity [2, 11]: (149.4 ± 7.4)^x
- GFAP Intensity [2, 12]: (150.1 ± 3.6)^x
- OX6 Intensity [2, 12]: (97.3 ± 4.5)^x
- GFAP Intensity ([2]; Right Hippocampus, Sham rats): (152.5 ± 7.9)
- OX6 Intensity ([2]; Right Hippocampus, Sham rats): (93.4 ± 1.4)
